Laboratory results from PubChem BioAssay AID1159562 (GlaxoSmithKline (GSK), 2015).
Activity calls are given as the source filed them. How the calls were made is not given here.

These molecules were tested on Trypanosoma brucei growth inhibition, luminescence (assay: Trypanosoma brucei growth inhibition, luminescence (AID 1159562);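 further: parasites grew with compound for 24 h before the luminescence read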).

Row | IC50 | Structure (SMILES)
1 | 13 µM | N#Cc1cccc(CNc2ccc(-c3cnn(CC4CC4)c(=O)c3C#N)cc2)c1
2 | 0.2 µM | Cc1ncsc1CNc1cnc(-c2ccc3c(c2)OCCO3)c(-c2cnn(C)c2)c1
3 | > 40 µM (inactive) | COc1ccccc1-c1c(C)[nH]c2nc(N)nc(C)c12
4 | 0.4 µM | O=C(NCC1CCCCN1C(=O)c1cccc2ccccc12)c1ccccc1 (stereo unspecified)
5 | 1 µM | O=C(Nc1ccc(-c2nc3ccccc3c(=O)[nH]2)cc1)c1cccs1
6 | 0.4 µM | O=C(NCc1nnc2n1CCCCC2)c1csc(-c2ccccc2)n1
7 | > 40 µM (inactive) | O=S(=O)(c1ccccc1C(F)(F)F)N1CCN(Cc2ccc(-n3ccnc3)cc2)CC1
8 | 0.5 µM | CCOc1ccc(NC(=O)c2ccc(NC(=O)NC3CCCCC3)cc2)cc1
9 | > 50 µM (inactive) | O=C(c1cccc(Nc2ncc(-c3ccc4c(c3)OCO4)cn2)c1)N1CCOCC1
10 | 6.3 µM | OCC1CCCCN1c1cc(-c2ccccn2)nc(Nc2ccccc2)n1 (stereo unspecified)
11 | > 40 µM (inactive) | C=CCn1nc([N+](=O)[O-])nc1Oc1ccc(Cl)cc1Cl
12 | 2.5 µM | COc1ccc(-c2nc3ncccc3o2)cc1NC(=O)c1cccs1
13 | 16 µM | O=C(CN(Cc1ccccn1)Cc1ccccn1)NCc1csc(-c2cccs2)n1
14 | > 40 µM (inactive) | O=c1oc2ccccc2n1C1CCN(Cc2ccccc2-c2cccnc2)CC1
15 | 0.32 µM | CN(Cc1nc2ccc(C(=O)NCC3CCCCC3)cc2[nH]1)C1CCCc2cccnc21 (stereo unspecified)
16 | > 40 µM (inactive) | Cc1c(C(=O)NCCCCn2ccnc2)oc2c(C)cccc12
17 | > 40 µM (inactive) | CC(C(=O)Nc1ccccc1F)N(C)CC(=O)Nc1cccc2ccccc12 (stereo unspecified)
18 | 0.79 µM | COc1ccc(-c2csc(NC(=O)c3ccc([N+](=O)[O-])s3)n2)cc1
19 | 0.5 µM | O=C(CSc1nnc2ccc(-c3ccc(F)cc3)nn12)N1CCCCC1
20 | 20 µM | O=C(NCC(c1cccnc1)N1CCc2ccccc2C1)C(=O)Nc1cccc(Cl)c1 (stereo unspecified)
21 | 13 µM | Cc1cccc(N2CCCN(Cc3c[nH]c4ccccc34)CC2)n1
22 | 0.02 µM | O=c1cc(NCCCNC2CCOc3c(I)cc(Cl)cc32)[nH]c2ccccc12 (stereo unspecified)
23 | > 40 µM (inactive) | N#Cc1cccc(CN2CCC(c3nc(-c4ccc(C(F)(F)F)nc4)no3)CC2)c1
24 | 16 µM | Cn1nccc1-c1cc(OC(CN)c2ccccc2)cnc1-c1ccco1 (stereo unspecified)
25 | 25 µM | CC(C)c1sc(Cl)nc1C(=O)NCCc1nc(C(=O)Nc2ccc3c(c2)OCO3)cs1
26 | 1.6 µM | Cc1ccccc1CNc1cc(C2CC2)nc(-c2nccn2C)n1

Row | IC50 | Structure (SMILES)
27 | 0.2 µM | O=C(Nc1ccc(S(=O)(=O)N2CCCC2)cc1)c1ccc([N+](=O)[O-])s1
28 | > 40 µM (inactive) | CCC(c1ccc(F)cc1)n1cncc1-c1cnn(C)c1 (stereo unspecified)
29 | 25 µM | c1ccc(Nc2nc3ccccc3[nH]2)nc1
30 | 0.5 µM | COc1cc(F)c2ncc(F)c(CCN3CC[C@H](NCc4cc5c(cn4)OCS5)[C@@H](O)C3)c2c1
31 | > 40 µM (inactive) | CCOc1cnn(C)c(=O)c1Nc1ccc(C(=O)NCc2ccc(F)cc2)cc1
32 | 0.4 µM | O=c1ccc2ccc(F)c3c2n1C[C@H]3CN1CCN(CC(O)c2cc3c(cn2)OCS3)CC1 (stereo partly specified)
33 | > 40 µM (inactive) | COCc1cnc2c(c1SCc1c(F)cccc1Cl)c(=O)n(C)c(=O)n2C
34 | 3.2 µM | CCCn1c(NC(=O)Cc2ccc(Cl)cc2)nc2ccccc21
35 | 0.79 µM | Cc1ccc(NC(=O)c2ccc([N+](=O)[O-])s2)cc1S(=O)(=O)N1CCOCC1
36 | 1.3 µM | O=C(NCC1CCCCC1)c1cc(=O)c2ccccc2o1
37 | 3.2 µM | Nc1nc(-c2ccccn2)nc(-n2nc(-c3ccccc3)cc2N)n1
38 | 0.25 µM | COc1ccc(C(=O)Nc2ccc(NC(=O)CO)cc2)cc1
39 | > 40 µM (inactive) | Cc1nc(-c2ccc3c(c2)OCO3)sc1C(=O)NCc1ccc2c(c1)OCO2
40 | 0.79 µM | O=C(CC1(O)C(=O)N(Cc2cccs2)c2ccc(Br)cc21)c1cccnc1 (stereo unspecified)
41 | 0.79 µM | N#Cc1ccc(C(=O)Nc2cccc(-c3cccc(CN4CCC(O)CC4)c3)c2)cc1
42 | 0.63 µM | O=C(Nc1nc(-c2ccccn2)cs1)N1C[C@H]2C[C@@]2(c2ccccc2)C1
43 | > 40 µM (inactive) | COc1ccc(C2=NCC(CSc3nnc(-c4ccc5c(c4)OCO5)o3)S2)cc1 (stereo unspecified)
44 | > 40 µM (inactive) | O=C(Cn1cnc2cc([N+](=O)[O-])ccc2c1=O)NCCc1ccc(Cl)cc1Cl
45 | 20 µM | O=C(Nc1n[nH]c(-c2ccccn2)n1)C1CC1c1ccccc1 (stereo unspecified)
46 | 0.4 µM | CCC(=O)Nc1ccccc1C(=O)Nc1ccccn1
47 | 5 µM | Cc1cc(NC(=O)c2ccc([N+](=O)[O-])s2)ccc1Br
48 | 0.5 µM | COc1ccc2ncc(=O)n(CCN3CC[C@H](NCc4ncc(Cl)c5[nH]ncc45)[C@H](O)C3)c2n1
49 | 0.79 µM | C[C@@H](Oc1cc(-n2cnc3ccc(O[C@H]4CCNC4)cc32)sc1C(N)=O)c1ccccc1Cl
50 | 0.13 µM | COc1ccc(NS(=O)(=O)c2cc(NC(=O)c3ccc([N+](=O)[O-])s3)ccc2OC)cc1
51 | 20 µM | COc1ccc(-c2cc(C)no2)cc1S(=O)(=O)Nc1ccc(C)c(C)c1
52 | > 40 µM (inactive) | Cc1[nH]c2ccccc2c(=O)c1Cc1c(C)[nH]c2ccccc2c1=O

Row | IC50 | Structure (SMILES)
53 | 10 µM | COc1cc(Cl)c(C)cc1NC(=O)c1ccc([N+](=O)[O-])s1
54 | 32 µM | CCOc1ccc(Nc2ccc(S(=O)(=O)N3CCN(C)CC3)cc2[N+](=O)[O-])cc1OCC
55 | 0.5 µM | CC(=O)NC1(c2ccccc2)CCN(CC(=O)Nc2ccccc2-c2ccccc2)CC1
56 | 10 µM | Cc1nn(-c2ccccc2)nc1CNC(=O)CN(Cc1ccccn1)Cc1ccccn1
57 | > 40 µM (inactive) | CCOc1ccccc1C(=O)Nc1nnc(-c2ccc3c(c2)OCO3)s1
58 | 20 µM | CCC(=O)N1N=C(c2ccc3c(c2)CCCC3)Sc2c1ncn2C(=O)CC
59 | 1 µM | NCC(Cc1ccccc1)NC(=O)c1cnc(-c2c[nH]c3ncccc23)s1 (stereo unspecified)
60 | 20 µM | CC(CNS(=O)(=O)c1ccc(OC(F)F)cc1)c1ccc(NC(=O)c2ccncc2)cc1 (stereo unspecified)
61 | 2 µM | Cc1ccc(CNC2CCN(C[C@@H]3Cn4c(=O)ccc5ccc(=O)n3c54)CC2)cc1F
62 | 0.5 µM | Cc1[nH]nc(-c2nc3ccccc3[nH]2)c1C(=O)NC1CCCNC1 (stereo unspecified)
63 | 5 µM | CC(CCc1ccccc1)NC(=O)CN(Cc1ccccn1)Cc1ccccn1 (stereo unspecified)
64 | 0.05 µM | CC(=O)Nc1ccc(Nc2nccc(-c3cnn4ncccc34)n2)cc1C(F)(F)F
65 | 1.6 µM | Cn1ccnc1-c1nc(NCc2ccccc2Cl)cc(C2CC2)n1
66 | 16 µM | COCCn1c(-c2ccccc2)cnc1NCc1ccccc1OC
67 | 3.2 µM | O=C(Nc1ccc(Br)cn1)c1ccc(Cn2cnc([N+](=O)[O-])n2)cc1
68 | 4 µM | COc1cccc(CN(C)Cc2nc(N)c3c(C)c(C)sc3n2)c1
69 | 0.013 µM | Cc1sc(C)c(C(F)(F)F)c1CNCCCNc1cc(=O)c2ccccc2[nH]1
70 | 5 µM | Cc1cc(N(C)C)nc2ccc(Cc3cnc(N)nc3N)cc12
71 | > 40 µM (inactive) | Cc1ccc(S(=O)(=O)Cn2nnnc2C(c2cccnc2)N2CCN(c3ccccc3)CC2)cc1 (stereo unspecified)
72 | 0.1 µM | CNS(=O)(=O)c1ccccc1Nc1nc(Nc2ccnn2C)ncc1Cl
73 | 20 µM | COc1ccc(CN(C)Cc2ccncc2)cc1-c1ccc(S(=O)(=O)NC2CCC2)s1
74 | 1.3 µM | CCCc1cc(C(=O)Nc2ncc(-c3cccc(Br)c3)n2C)n[nH]1
75 | 0.79 µM | COc1ccc(NC(=O)c2ccc(NC(=O)CN(c3ccccc3C)S(C)(=O)=O)cc2)cc1
76 | 25 µM | COCCn1c(-c2ccc3c(c2)OCO3)cnc1NCc1ccccc1OC
77 | > 40 µM (inactive) | O=C1CSC(c2cccnc2)N1c1ccc(Cl)cc1Cl (stereo unspecified)
78 | 1.6 µM | Cc1ccc(S(C)(=O)=O)cc1Nc1nccc(-c2sc(N)nc2-c2ccccc2)n1

Row | IC50 | Structure (SMILES)
79 | > 40 µM (inactive) | CCN(Cc1cccs1)C(=O)CSc1nnc(-c2ccc3c(c2)OCO3)o1
80 | 0.25 µM | NS(=O)(=O)c1ccc(CNC(=O)c2ccc([N+](=O)[O-])s2)cc1
81 | 0.5 µM | CN1C(=O)c2ccccc2Sc2ccc(NC(=O)NCc3ccco3)cc21
82 | 0.25 µM | COc1cccc2sc(CN(C)C(=O)C3CNCCN3c3ccc(F)cc3)c(C)c12 (stereo unspecified)
83 | 0.32 µM | Cc1[nH]n2c(=O)c3c(nc2c1-c1ccc(Cl)cc1)CCCC3
84 | 4 µM | Cc1ccc2ccc(C(Nc3ccccn3)c3cccnc3)c(O)c2n1 (stereo unspecified)
85 | > 40 µM (inactive) | c1ccc(CNc2cccc3ccncc23)cc1
86 | 20 µM | COc1ccc([N+](=O)[O-])cc1NC(=O)Nc1cccc(Cl)c1
87 | 0.79 µM | COc1ccc(OC)c(S(=O)(=O)N(Cc2c(F)cccc2F)[C@@H]2CCN(C#N)C2)c1
88 | 0.16 µM | CCN(CC)S(=O)(=O)c1ccc(C)c(NC(=O)c2cc(Cl)c3c(c2)OCO3)c1
89 | 32 µM | COc1ccc(-c2cnc(C)o2)cc1S(=O)(=O)Nc1ccc(C)cc1C
90 | > 40 µM (inactive) | O=C(NCCc1ccccn1)C(c1cn[nH]c1)N1CCN(c2ccc(Cl)c(Cl)c2)CC1 (stereo unspecified)
91 | > 40 µM (inactive) | COc1ccc(CN2CCCCC2c2nc(-c3cccnc3)no2)cc1 (stereo unspecified)
92 | > 40 µM (inactive) | COc1ccc(S(=O)(=O)NC(C)C)cc1Nc1ncc(-c2cccc(F)c2)cn1
93 | > 40 µM (inactive) | O=C(Nc1cccc(Cl)c1)N1CCCCC1c1cccnc1 (stereo unspecified)
94 | 1 µM | CCc1cccc(CC)c1-n1c(SCC(=O)N2CC(=O)Nc3ccccc32)nnc1-c1cccnc1
95 | 3.2 µM | COc1ccc(-c2cnc(NC(=O)c3ccc(F)cc3)n2C)cc1
96 | 0.1 µM | O=c1[nH]c(NCCCNCc2cc(Br)cc(Br)c2)nc2ccsc12
97 | 0.32 µM | Cc1cc(=O)n2nc(Oc3ccc(C#N)cc3Cl)sc2n1
98 | 6.3 µM | COc1ccc(CNc2nsc3ccccc23)cc1OC
99 | 0.63 µM | O=C(NCCc1csc(-c2cccc(F)c2)n1)c1ccco1
100 | 20 µM | CCOc1cc(NCCCN2CCN(C)CC2)c2ncccc2c1
101 | > 40 µM (inactive) | CC1(Oc2cncc(Cl)c2)CCN(Cc2cc3ccccc3[nH]2)C1 (stereo unspecified)
102 | 0.16 µM | Cc1cc(NC(=O)C2CCCCC2)n(-c2nc3c(c(=O)[nH]2)CCC3)n1

Row | Structure (SMILES) | IC50
103 | Cc1[nH]nc2c1C(c1ccc(OCc3ccccc3F)cc1)SCC(=O)N2 (stereo unspecified) | > 40 µM (inactive)
104 | CNC(=O)Oc1ccc(C(=O)NCc2ccccc2)cc1OC(=O)NC | 0.4 µM
105 | CN1CCC(N(C)c2nccc(N3CCN(C(=O)c4cccc(-c5cccnc5)c4)CC3)n2)CC1 | 1 µM
106 | CC(C)N(C(=O)CN1C(=O)C(N)C(=O)N(c2ccccc2)c2ccccc21)c1ccccc1 (stereo unspecified) | > 40 µM (inactive)
